Measured values: patent US5460801A, “Inhibition of small cell lung cancer cell growth in vivo using monoclonal antibody” (The United States of America as represented by the …, priority 1993, dated 1995)
Several values for one entry are separate records, joined by “and”; a condition that tells them apart may be missing. Identical values can stand only once. Square brackets hold non-standard residues; d marks the D form. Ends that are not written are not given here. Peptide text beside a SMILES is read from it. pGlu = O=C1CC[C@@H](C(=O)O)N1

Legend:
[1] = test system: 2A11 staining of BLP in paraffin embedded tissue; assay: Immunohistochemical staining with 2A11: pre-absorption specificity test; conditions: peptide 100 μg/ml; 2A11 at 10 μg/ml
Description: Antibody 2A11 was also used for immunohistochemical localization of BLP in paraffin embedded tissue. Using rabbit antisera it has been reported that chick proventriculus and human fetal bronchioles are rich in BN-like immunoreactivity. Use was, therefore, made of immunohistochemical staining technique of Hsu, et al. J. Histochem. Cytochem. 29, 557-5--1981, in combination with 2A11 for the light microscopic detection of BLP. Bombesinergic cells were found in chick proventriculus, human fetal bronchioles and a human SCLC. Immune staining was performed using 2A11 at 10 μg/ml.

solid phase 2A11 = assay: Quantitative inhibition assay: peptide inhibition of 125I-Tyr4-BN binding to solid phase 2A11; design: species or system mouse; conditions: for PERCENT INHIBITION of 125I-Tyr4-BN binding to solid phase 2A11: peptides at 1 nM, mean ± SD of 3 determinations
Protocol: Antibodies 2A11 or MOPC 21 were adsorbed to 96 well polyvinylchloride plates at 500 ng/well followed by saturation with 1% BSA-PBS. Unlabeled bombesin was added to triplicate wells covering a range from 1-1,000 pg and incubated for 1 hr. at room temperature. Without removing the unlabeled bombesin samples, about 12,000 cpm of ^125 I-Tyr^4 -bombesin was added to each well and incubated overnight at 4° C., washed 8× and counted. All additions were in 1% BSA-PBS in a 25 μl volume, and the washes were with 1% BSA-PBS 0.2 ml/well.

monoclonal antibody 2A11 = assay: Indirect radioimmunoassay: 2A11 cross reactivity with solid phase synthetic peptides; format: binding, mouse; conditions: for % 125I-PROTEIN A BOUND (% cross reactivity with 2A11): cpm minus BSA background relative to bombesin; for % 125I-PROTEIN A BOUND (% cross reactivity with 2A11) / CPM 125I-PROTEIN A BOUND: peptides solid phased at 500 ng/well; for 2A11 binding to the solid phase peptide (in words): indirect RIA / titration of 2A11; for CPM 125I-PROTEIN A BOUND: 2A11 10 μg/ml, detection with rabbit anti mouse IgG and 125I-protein A
Protocol: Peptides (all purchased from Peninsula Laboratories) were adsorbed to 96 well polyvinyl chloride microtiter plates (Dynatech) by adding 0.05 ml of a 10 μg/ml peptide in phosphate buffered saline (PBS) for 1 hr., washing in PBS, then blocking with a 1% bovine serum albumin (BSA) PBS solution. Purified 2A11 from ascites fluid (10 μg/ml) was added, incubated, washed three times, then protein A affinity purified rabbit anti-mouse IgG (Cappel Laboratories) 1.6 μg/ml) was added, incubated, washed three times, then ^125 I-protein A (Pharmacia, labeled by chloramine T method to 40-50 μCi/μg) 40,000 cpm/well was added, incubated, washed 8× and then the wells cut out and counted in a Beckman gamma counter. All incubations were for 1 hr. at room temperature in PBS with 1% BSA in 0.025 ml volumes.
Percent cross reactivity was determined as follows:
% cross reactivity--cpm^125 I-protein A bound on peptide target minus cpm bound on BSA target divided by crop bound by bombesin minus BSA background times 100. Typically, the bombesin target caused 2A11 binding sufficient to bind about 32,776 cpm of ^125 I-protein A while the BSA background bound about 30 cpm.

NCI-N592 = assay: Agarose clonogenic assay in serum-free HITES medium, NCI-N592; format: cell-based, human; conditions: 50 nM exogenous BN; SCLC lines NCI-N417D and NCI-N592
Protocol: Because of its poor colony forming efficiency in serum-free medium, NCI-N417 culture plates were supplemented with 0.1% BSA to enhance cell growth, NCI-N592 cells were seeded at 5×10^4 per plate while NCI-N417 cells were plated at 1×10^4. Plates were pre-screened to verify single cell distribution of test cells and assessed 21 days later for colony formation. Cell aggregates of greater than 50 cells were scored positive as definitive colony growth.

Row | Molecule | PERCENT INHIBITION of 125I-Tyr4-BN binding to solid phase 2A11 (solid phase 2A11) [%] | % 125I-PROTEIN A BOUND (% cross reactivity with 2A11) (monoclonal antibody 2A11) [%] | CPM 125I-PROTEIN A BOUND (monoclonal antibody 2A11) | also measured
1 | neurotensin | – | – | – | effect of pre-absorption of the antibody solution on 2A11 staining (in words) [1]: no inhibition of staining
2 | gastrin-releasing peptide [GASTRIN RELEASING PEPTIDE (GRP)] | 101.0 ± 3.4 | 102 | 33,405 CPM | 2A11 binding to the solid phase peptide (in words) (monoclonal antibody 2A11): maximal binding
3 | CSCC[C@H](NC(=O)[C@H](Cc1ccccc1)NC(=O)[C@H](Cc1c[nH]cn1)NC(=O)CNC(=O)[C@@H](NC(=O)[C@H](C)NC(=O)[C@H](Cc1c[nH]c2ccccc12)NC(=O)[C@H](CCC(N)=O)NC(=O)[C@@H]1CCC(=O)N1)C(C)C)C(N)=O [Litorin] | 56.5 ± 6.2 | – | – | –
4 | CSCC[C@H](NC(=O)[C@H](Cc1ccccc1)NC(=O)[C@H](Cc1c[nH]cn1)NC(=O)CNC(=O)[C@@H](NC(=O)[C@H](C)NC(=O)[C@H](Cc1c[nH]c2ccccc12)NC(=O)[C@H](CCC(N)=O)NC(=O)[C@@H]1CCCN1C(=O)[C@@H](NC(=O)[C@@H]1CCC(=O)N1)C(C)C)C(C)C)C(N)=O [Ranatensin] ([pGlu]VPQWAVGHFM-NH2) | 54.0 ± 8.4 | – | – | –
5 | GRP^14-27: fragment 14-27 of gastrin releasing peptide (MYPRGNHWAVGHLM; ends and bridges not checked; UniProt P07492 37-50, looked up, fragment) | 104.3 ± 7.7 | 102 | 33,379 CPM | –
6 | GRP^20-27: C-terminal octapeptide fragment 20-27 of gastrin releasing peptide | – | – | – | PERCENT INHIBITION of 125I-Tyr4-BN binding to solid phase 2A11 (solid phase 2A11; 0.001 µM): 98.5 ± 2.4% and 98.5%
7 | CSCC[C@H](NC(=O)[C@H](CC(C)C)NC(=O)CNC(=O)[C@H](Cc1ccccc1)NC(=O)[C@H](Cc1ccccc1)NC(=O)[C@H](CCC(N)=O)NC(=O)[C@H](CCC(N)=O)NC(=O)[C@@H]1CCCN1C(=O)[C@H](CCCCN)NC(=O)[C@@H]1CCCN1C(=O)[C@@H](N)CCCNC(=N)N)C(N)=O [SUBSTANCE P, substance P] | – | < 0.02 | 31 CPM | inhibition of 125I-Tyr4-BN/2A11 binding (in words) (solid phase 2A11; same concentration range as BN standard curve): incapable of inhibiting; % 125I-PROTEIN A BOUND (% cross reactivity with 2A11) (monoclonal antibody 2A11; listed as substance P): less than 0.3%; 2A11 binding to the solid phase peptide (in words) (monoclonal antibody 2A11): insignificant 2A11 binding
8 | Alytesin | 99.0 ± 5.1 | – | – | –
9 | CC[C@H](C)[C@H](NC(=O)[C@H](Cc1ccccc1)NC(=O)[C@H](C)NC(=O)[C@H](CC(=O)O)NC(=O)[C@H](CCCCN)NC(=O)[C@H](CO)NC(=O)[C@@H]1CCCN1C(=O)[C@@H]1CCC(=O)N1)C(=O)NCC(=O)N[C@@H](CC(C)C)C(=O)N[C@@H](CCSC)C(N)=O [ELEDOISIN, eledoisin] ([pGlu]PSKDAFIGLM-NH2) | – | < 0.02 | 24 CPM | % 125I-PROTEIN A BOUND (% cross reactivity with 2A11) (monoclonal antibody 2A11; listed as eledoisin): less than 0.3%
10 | bombesin | 100.0 ± 4.7 | 100 | – | effect of pre-absorption of the antibody solution on 2A11 staining (in words) [1]: staining inhibited; effect of exogenous BN on 2A11 growth inhibition (in words) (NCI-N592): nullification of the 2A11 effect; 2A11 binding to the solid phase peptide (in words) (monoclonal antibody 2A11): maximal binding; CPM 125I-PROTEIN A BOUND (monoclonal antibody 2A11; listed as BOMBESIN): 32,776 CPM; CPM 125I-PROTEIN A BOUND (monoclonal antibody 2A11; listed as bombesin): about 32,776 CPM
11 | KASSININ | – | < 0.02 | 37 CPM | % 125I-PROTEIN A BOUND (% cross reactivity with 2A11) (monoclonal antibody 2A11; listed as kassinin): less than 0.3%
12 | PHYSALAEMIN | – | < 0.02 | 28 CPM | % 125I-PROTEIN A BOUND (% cross reactivity with 2A11) (monoclonal antibody 2A11; listed as physalaemin): less than 0.3%
